The test system of one data set is H460 cell line. Description: Cytotoxicity against H460 cells. The class given is cell-based. The following applies: read-out: H460 IC50; non-small cell lung cancer cell line.
The next data set concerns SF188 cell line. Description: Cytotoxicity against SF188 cells. The class given is cell-based, human.
The next data set deals with D283-med cell line. Description: Cytotoxicity against D283-med cells. It is filed as cell-based, human.
The nature of data set [1]: PAMPA-BBB permeability assay. In general terms: The PAMPA barrier holds no transporters, so it reflects passive diffusion.
Where [2] appears, read: read-out: SF188 IC50, glioblastoma cell line.
[3] abbreviates: read-out: D283-med IC50, medulloblastoma cell line.
[4] abbreviates: Homo sapiens, SF-188, read-out: SF188 IC50, glioblastoma cell line.
Setting [5] is: Homo sapiens, D283 Med, read-out: D283-med IC50, medulloblastoma cell line.

Read-outs that look alike come from different tables or passages of the source.

With `CC(C)C[C@H](NC(=O)[C@@H]1Cc2c(F)c(F)c(c(F)c2F)S(=O)(=O)c2cccc(c2)CC(=O)NCC(=O)N1)C(=O)[C@@]1(C)CO1` [Compound 32, (S)-32,33,35,36-Tetrafluoro-N-((S)-4-methyl-1-((R)-2-methyloxiran-2-yl)-1-oxopentan-2-yl)-7,10-dioxo-2-thia-6,9-diaza-1(1,3),3(1,4)-dibenzenacycloundecaphane-5-carboxamide 2,2-dioxide], the IC50 in the data set on H460 cell line is 4540 nM; in the data set on SF188 cell line (setting [2]), 7230 nM; in the data set on D283-med cell line (setting [3]) it was 563 ± 46 nM.

Take `CC(C)C[C@H](NC(=O)[C@@H]1Cc2c(F)c(F)c(c(F)c2F)Sc2ccc(cc2)CC(=O)N[C@@H](C(C)C)C(=O)N1)C(=O)[C@@]1(C)CO1` [Compound 9, (5S,8S)-3^2,3^3,3^5,3^6-Tetrafluoro-8-isopropyl-N-((S)-4-methyl-1-((R)-2-methyloxiran-2-yl)-1-oxopentan-2-yl)-7,10-dioxo-2-thia-6,9-diaza-1,3(1,4)-dibenzenacycloundecaphane-5-carboxamide]: the IC50 stood at 754 nM in the data set with H460 cell line and 87 nM in the data set on SF188 cell line (setting [2]).

On to `CCCCCC(=O)N[C@H](C(=O)N[C@@H](CCS(C)(=O)=O)C(=O)N[C@@H](CC(C)C)C(=O)[C@@]1(C)CO1)C(C)C` [Carmaphycin B, reference compound], for which the IC50 in the data set with H460 cell line was determined as 111 ± 30 nM; with SF188 cell line (setting [2]), 19 ± 2 nM; in the data set with D283-med cell line (setting [3]), 13 ± 2 nM.

In the case of `CC(C)C[C@H](NC(=O)[C@@H]1Cc2c(F)c(F)c(c(F)c2F)Sc2cccc(c2)CC(=O)N(C)[C@@H](C(C)C)C(=O)N1)C(=O)[C@@]1(C)CO1` [Compound 19, (5S,8S)-3^2,3^3,3^5,3^6-Tetrafluoro-8-isopropyl-9-methyl-N-((S)-4-methyl-1-((R)-2-methyloxiran-2-yl)-1-oxopentan-2-yl)-7,10-dioxo-2-thia-6,9-diaza-1(1,3),3(1,4)-dibenzenacycloundecaphane-5-carboxamide], the results for the IC50 with H460 cell line, in the data set on SF188 cell line (setting [2]) and in the data set with D283-med cell line (setting [3]) were greater than 15000 nM, 12300 nM and 10800 nM, respectively.

In data set [1] (PAMPA), `Cc1ncc2n1-c1ccc(Cl)cc1C(c1ccccc1F)=NC2` [Midazolam, reference compound] had a Papp of 6.8 ×10⁻⁶ cm/s and a recovery of 84%.

On to `Cn1c(=O)c2[nH]cnc2n(C)c1=O` [Theophylline, reference compound], for which the recovery in data set [1] (PAMPA, % Recovery, PAMPA-BBB) stood at 96%.

Take `CC(C)CC(NC(=O)C1Cc2c(F)c(F)c(c(F)c2F)S(=O)(=O)c2cccc(c2)CC(=O)NC(C(C)C)CC(=O)N1)C(=O)C1(C)CO1` [Compound 25, (5S,9S)-3^2,3^3,3^5,3^6-Tetrafluoro-9-isopropyl-N-((S)-4-methyl-1-((R)-2-methyloxiran-2-yl)-1-oxopentan-2-yl)-7,11-dioxo-2-thia-6,10-diaza-1(1,3),3(1,4)-dibenzenacyclododecaphane-5-carboxamide 2,2-dioxide]: the IC50 in the data set on H460 cell line, in the data set on SF188 cell line (setting [2]) and with D283-med cell line (setting [3]) was greater than 15000 nM throughout.

With `CC(C)C[C@H](NC(=O)[C@@H]1Cc2c(F)c(F)c(c(F)c2F)S(=O)(=O)c2cccc(c2)CC(=O)N[C@@H](C(C)C)CC(=O)N1)C(=O)[C@@]1(C)CO1` [Compound 26, (5S,9R)-3^2,3^3,3^5,3^6-Tetrafluoro-9-isopropyl-N-((S)-4-methyl-1-((R)-2-methyloxiran-2-yl)-1-oxopentan-2-yl)-7,11-dioxo-2-thia-6,10-diaza-1(1,3),3(1,4)-dibenzenacyclododecaphane-5-carboxamide 2,2-dioxide], the IC50 came to 2360 nM in the data set on H460 cell line, 673 ± 50 nM in the data set on SF188 cell line (setting [2]) and 472 ± 36 nM in the data set with D283-med cell line (setting [3]).

For `CC(C)C[C@H](NC(=O)[C@@H]1Cc2c(F)c(F)c(c(F)c2F)Sc2cccc(c2)CC(=O)N[C@@H](C(C)(C)C)C(=O)N1)C(=O)[C@@]1(C)CO1` [Compound 12, (5S,8S)-8-(Tert-butyl)-3^2,3^3,3^5,3^6-tetrafluoro-N-((S)-4-methyl-1-((R)-2-methyloxiran-2-yl)-1-oxopentan-2-yl)-7,10-dioxo-2-thia-6,9-diaza-1(1,3),3(1,4)-dibenzenacycloundecaphane-5-carboxamide], the IC50 in the data set on H460 cell line was 2470 nM; in the data set with SF188 cell line (setting [2]), 507 ± 134 nM; in the data set on D283-med cell line (setting [3]) it was 432 ± 74 nM.

For “(S)-10,10-Dimethyl-N-((S)-4-methyl-1-((R)-2-methyloxiran-2-yl)-1-oxopentan-2-yl)-8,11-dioxo-2-oxa-9,12-diaza-1(1,4)-benzenacyclotetradecaphane-13-carboxamide [Compound 34]”, the IC50 in the data set with H460 cell line came to 4520 nM; in the data set on SF188 cell line (setting [2]), 2910 nM; in the data set on D283-med cell line (setting [3]), 2080 nM.

Take `CC(=O)O[C@@H](C)[C@@H]1NC(=O)Cc2cccc(c2)S(=O)(=O)c2c(F)c(F)c(c(F)c2F)C[C@@H](C(=O)N[C@@H](CC(C)C)C(=O)[C@@]2(C)CO2)NC1=O` [Compound 28, (S)-1-((5S,8S)-3^2,3^3,3^5,3^6-Tetrafluoro-5-(((S)-4-methyl-1-((R)-2-methyloxiran-2-yl)-1-oxopentan-2-yl)carbamoyl)-2,2-dioxido-7,10-dioxo-2-thia-6,9-diaza-1(1,3),3(1,4)-dibenzenacycloundecaphane-8-yl)ethyl acetate]: the IC50 in the data set with H460 cell line came out at 549 ± 21 nM; in the data set with SF188 cell line (setting [2]), 148 ± 35 nM; with D283-med cell line (setting [3]), 44 ± 6 nM.

In the case of `CC(C)C[C@H](NC(=O)[C@@H](CSc1c(F)c(F)c(F)c(F)c1F)NC(=O)c1cc(Cl)ccc1Cl)C(=O)[C@@]1(C)CO1` [Compound 6, 2,5-Dichloro-N-((S)-1-(((S)-4-methyl-1-((R)-2-methyloxiran-2-yl)-1-oxopentan-2-yl)amino)-1-oxo-3-((perfluorophenyl)thio)propan-2-yl)benzamide], the concentration for half-maximal inhibition (IC50) in the data set on SF188 cell line (setting [4]) was 4080 ± 770 nM; in the data set on D283-med cell line (setting [5]) it was greater than 10000 nM.

As to `CCCCCC(=O)N[C@H](C(=O)NC(CSc1c(F)c(F)c(F)c(F)c1F)C(=O)N[C@@H](CC(C)C)C(=O)[C@@]1(C)CO1)C(C)C` (stereo in doubt) [Compound 1, N-((S)-3-Methyl-1-(((S)-1-(((S)-4-methyl-1-((R)-2-methyloxiran-2-yl)-1-oxopentan-2-yl)amino)-1-oxo-3-((perfluorophenyl)thio)propan-2-yl)amino)-1-oxobutan-2-yl)hexanamide], the “Mean Permeability” value in data set [1] (PAMPA-BBB) is on record as 0.63 10^−6 cm/sec. Also, the IC50 is 143 ± 18 nM with SF188 cell line (setting [4]) and 236 ± 27 nM in the data set on D283-med cell line (setting [5]).

`CC(C)C[C@H](NC(=O)[C@@H](CSc1c(F)c(F)c(F)c(F)c1F)NC(=O)Cc1c(F)c(F)c(F)c(F)c1F)C(=O)[C@@]1(C)CO1` [Compound 5, (S)-N-((S)-4-Methyl-1-((R)-2-methyloxiran-2-yl)-1-oxopentan-2-yl)-2-(2-(perfluorophenyl)acetamido)-3-((perfluorophenyl)thio)propenamide]: the IC50 with H460 cell line, in the data set on SF188 cell line (setting [2]) and in the data set on D283-med cell line (setting [3]) was greater than 10000 nM throughout.

For `CC(C)C[C@H](NC(=O)[C@@H]1Cc2c(F)c(F)c(c(F)c2F)[S+]([O-])c2cccc(c2)CC(=O)N[C@@H](C(C)(C)O)C(=O)N1)C(=O)[C@@]1(C)CO1` (stereo partly drawn) [Compound 23, (5S,8S)-3^2,3^3,3^5,3^6-Tetrafluoro-8-(2-hydroxypropan-2-yl)-N-((S)-4-methyl-1-((R)-2-methyloxiran-2-yl)-1-oxopentan-2-yl)-7,10-dioxo-2-thia-6,9-diaza-1(1,3),3(1,4)-dibenzenacycloundecaphane-5-carboxamide 2-oxide], the IC50 was 1640 ± 87 nM in the data set with H460 cell line, 205 ± 21 nM in the data set on SF188 cell line (setting [2]) and 176 ± 2 nM with D283-med cell line (setting [3]).

Consider `CC(C)C[C@H](NC(=O)[C@@H]1Cc2c(F)c(F)c(c(F)c2F)Sc2cccc(c2)CC(=O)N[C@@H](C(C)C)CC(=O)N1)C(=O)[C@@]1(C)CO1` [Compound 17, (5S,9R)-3^2,3^3,3^5,3^6-Tetrafluoro-9-isopropyl-N-((S)-4-methyl-1-((R)-2-methyloxiran-2-yl)-1-oxopentan-2-yl)-7,11-dioxo-2-thia-6,10-diaza-1(1,3),3(1,4)-dibenzenacyclododecaphane-5-carboxamide], for which the IC50 in the data set on H460 cell line came to 5380 nM; in the data set with SF188 cell line (setting [2]), 2460 nM; in the data set with D283-med cell line (setting [3]), 1800 nM.

`CC(C)C[C@H](NC(=O)[C@@H]1Cc2c(F)c(F)c(c(F)c2F)Sc2cccc(c2)CC(=O)N2C[C@H]3[C@@H]([C@H]2C(=O)N1)C3(C)C)C(=O)[C@@]1(C)CO1` [Compound 13, (61S,64S,65R,9S)-1^2,1^3,1^5,1^6-Tetrafluoro-6^6,6^6-dimethyl-N-((S)-4-methyl-1-((R)-2-methyloxiran-2-yl)-1-oxopentan-2-yl)-5,7-dioxo-2-thia-6^3,8-diaza-6(3,4)-bicyclo[3.1.0]hexana-1(1,4),3(1,3)-dibenzenacyclodecaphane-9-carboxamide]: the IC50 with H460 cell line, with SF188 cell line (setting [2]) and in the data set with D283-med cell line (setting [3]) was greater than 15000 nM each time.

On to `CC(C)C[C@H](NC(=O)CNC(=O)c1cc(Cl)ccc1Cl)C(=O)[C@@]1(C)CO1` [Compound 8, 2,5-Dichloro-N-(2-(((S)-4-methyl-1-((R)-2-methyloxiran-2-yl)-1-oxopentan-2-yl)amino)-2-oxoethyl)benzamide], for which the IC50 turned out to be 532 ± 23 nM with SF188 cell line (setting [4]) and 3700 ± 270 nM with D283-med cell line (setting [5]).

Consider `CC(C)C[C@H](NC(=O)C(CSc1c(F)c(F)c(F)c(F)c1F)NC(=O)[C@@H](NC(=O)Cc1c(F)c(F)c(F)c(F)c1F)C(C)C)C(=O)[C@@]1(C)CO1` (stereo in doubt) [Compound 3, (S)-3-Methyl-N-((S)-1-(((S)-4-methyl-1-((R)-2-methyloxiran-2-yl)-1-oxopentan-2-yl)amino)-1-oxo-3-((perfluorophenyl)thio)propan-2-yl)-2-(2-(perfluorophenyl)acetamido)butanamide], for which the IC50 is 213 ± 10 nM in the data set on SF188 cell line (setting [4]) and 102 ± 7 nM in the data set on D283-med cell line (setting [5]).

For the compound `CC(C)C[C@H](NC(=O)CNC(=O)Cc1c(F)c(F)c(F)c(F)c1F)C(=O)[C@@]1(C)CO1` [Compound 7, N-((S)-4-Methyl-1-((R)-2-methyloxiran-2-yl)-1-oxopentan-2-yl)-2-(2-(perfluorophenyl)acetamido)acetamide], the IC50 in the data set with SF188 cell line (setting [4]) and with D283-med cell line (setting [5]) was greater than 10000 nM in each case.

A word on the IC50: it is the concentration needed to halve the response being measured. As usually defined, the Papp is the rate of passage across a membrane or cell layer, normalised by area and donor concentration.

Source of the values: PMC13626384 (Journal of medicinal chemistry, 2025).
